Data taken from ChEMBL document CHEMBL1773045, “Conjugate (MTC-220) of muramyl dipeptide analogue and paclitaxel prevents both tumor growth and metastasis in mice” (J Med Chem, 2011).
Activity calls are given as the source filed them. No cut-off for these calls is given here.

Tests used:
A2780 = assay: Antitumor activity against human A2780 cells xenografted in nu/nu BALB/c mouse assessed as tumor growth inhibition at 30 mg/kg, ip qd for 12 days measured on day 25 relative to control; assay type: functional; settings: route intraperitoneal, read-out: GI
KETR3 = assay: Cytotoxicity against human Ketr3 cells after 72 hrs by MTT assay; assay type: functional, cell-based
HL-60(TB) = assay: Growth inhibition of human HL-60(TB) cells after 48 hrs by sulforhodamine B assay; assay type: functional; settings: HL-60, 48 h
A-431 = assay: Cytotoxicity against human A431 cells after 72 hrs by MTT assay; assay type: functional, cell-based
OVCAR-8 = assay: Growth inhibition of human OVCAR8 cells after 48 hrs by sulforhodamine B assay; assay type: functional; settings: OVCAR-8, 48 h
SF-539 = assay: Growth inhibition of human SF539 cells after 48 hrs by sulforhodamine B assay; assay type: functional; settings: SF-539, 48 h
[1] = Growth inhibition of human […] cells after 48 hrs by sulforhodamine B assay; assay type: functional
SR = assay: Growth inhibition of human SR cells after 48 hrs by sulforhodamine B assay; assay type: functional
RXF 393 = assay: Growth inhibition of human RXF393 cells after 48 hrs by sulforhodamine B assay; assay type: functional; settings: RXF 393, 48 h
SW-620 = assay: Growth inhibition of human SW620 cells after 48 hrs by sulforhodamine B assay; assay type: functional; settings: SW-620, 48 h
4T1 [2] = assay: Antimetastatic activity against mouse 4T1 cells xenografted in […] mouse assessed as inhibition of lung metastasis at 2.5 to 10 mg/kg, ip qd for 28 days; assay type: functional, organism-based
Mus musculus [3] = assay: Antimetastatic activity against mouse 4T1 cells xenografted in BALB/c mouse assessed as reduction of myeloid derived suppressor cells accumulation in bone marrow at 5 mg/kg, ip qd for 23 days by flow cytometry analysis relative to control; assay type: functional; parameters: scale not given: the % may be the effect or the level left; settings: route intraperitoneal
Mus musculus [4] = assay: Toxicity in human cancer cells xenografted in nu/nu BALB/c mouse assessed as body weight loss at 5 to 30 mg/kg, ip qd for 24 days; assay type: organism-based, Cancer cell lines; parameters: dose 5-30 mg/kg, route intraperitoneal; settings: in vivo, 576 h
HeLa = assay: Cytotoxicity against human HeLa cells after 72 hrs by MTT assay; assay type: functional, cell-based
NCI-H322M = assay: Growth inhibition of human NCI-H322M cells after 48 hrs by sulforhodamine B assay; assay type: functional
HCT-116 = assay: Growth inhibition of human HCT116 cells after 48 hrs by sulforhodamine B assay; assay type: functional; settings: HCT-116, 48 h
A498 = assay: Growth inhibition of human A498 cells after 48 hrs by sulforhodamine B assay; assay type: functional; settings: A498, 48 h
ACHN = assay: Growth inhibition of human ACHN cells after 48 hrs by sulforhodamine B assay; assay type: functional
TK-10 = assay: Growth inhibition of human TK10 cells after 48 hrs by sulforhodamine B assay; assay type: functional; settings: TK-10, 48 h
Mus musculus [5] = assay: Antimetastatic activity against mouse 4T1 cells xenografted in BALB/c mouse assessed as reduction of MMP9 mRNA expression in tumor at 5 mg/kg, ip qd for 23 days by RT-PCR analysis; assay type: functional, organism-based; parameters: dose 5 mg/kg
UACC-257 = assay: Growth inhibition of human UACC257 cells after 48 hrs by sulforhodamine B assay; assay type: functional; settings: UACC-257, 48 h
U-251 = assay: Growth inhibition of human U251 cells after 48 hrs by sulforhodamine B assay; assay type: functional; settings: U-251, 48 h
OVCAR-3 = assay: Growth inhibition of human OVCAR3 cells after 48 hrs by sulforhodamine B assay; assay type: functional; settings: OVCAR-3, 48 h
IGROV-1 = assay: Growth inhibition of human IGROV1 cells after 48 hrs by sulforhodamine B assay; assay type: functional; settings: IGROV-1, 48 h
MDA-MB-435 = assay: Growth inhibition of human MDA-MB-435 cells after 48 hrs by sulforhodamine B assay; assay type: functional; settings: MDA-MB-435, 48 h
Mus musculus [6] = assay: Toxicity in mouse 4T1 cells xenografted […] mouse assessed as decrease in body weight at 2.5 to 10 mg/kg, ip qd for 28 days; assay type: organism-based; parameters: dose 2.5-10 mg/kg, route intraperitoneal; settings: in vivo, 672 h
MCF7 = assay: Growth inhibition of human MCF7 cells after 48 hrs by sulforhodamine B assay; assay type: functional; settings: MCF7, 48 h
NCI-H522 = assay: Growth inhibition of human NCI-H522 cells after 48 hrs by sulforhodamine B assay; assay type: functional; settings: NCI-H522, 48 h
KB = assay: Cytotoxicity against human KB cells after 72 hrs by MTT assay; assay type: functional, cell-based
MDA-MB-468 = assay: Growth inhibition of human MDA-MB-468 cells after 48 hrs by sulforhodamine B assay; assay type: functional; settings: MDA-MB-468, 48 h
Mus musculus [7] = assay: Antimetastatic activity against mouse 4T1 cells xenografted in BALB/c mouse assessed as reduction of myeloid derived suppressor cells accumulation in spleen at 5 mg/kg, ip qd for 23 days by flow cytometry analysis relative to control; assay type: functional; parameters: scale not given: the % may be the effect or the level left; settings: route intraperitoneal
4T1 [8] = assay: Antitumor activity against mouse 4T1 cells xenografted in […] mouse assessed as tumor growth inhibition at 10 mg/kg, ip qd for 28 days relative to control; assay type: functional; settings: 4T1, ip, 672 h, route intraperitoneal, read-out: GI
SK-MEL-28 = assay: Growth inhibition of human SK-MEL-28 cells after 48 hrs by sulforhodamine B assay; assay type: functional; settings: SK-MEL-28, 48 h
OVCAR-4 = assay: Growth inhibition of human OVCAR4 cells after 48 hrs by sulforhodamine B assay; assay type: functional; settings: OVCAR-4, 48 h
DU-145 = assay: Growth inhibition of human DU145 cells after 48 hrs by sulforhodamine B assay; assay type: functional; settings: DU-145, 48 h
NCI-H23 = assay: Growth inhibition of human NCI-H23 cells after 48 hrs by sulforhodamine B assay; assay type: functional; settings: NCI-H23, 48 h
UO-31 = assay: Growth inhibition of human UO31 cells after 48 hrs by sulforhodamine B assay; assay type: functional; settings: UO-31, 48 h
[9] = tested on: Lewis lung carcinoma cell line; assay: Antitumor activity against mouse LLC cells xenografted in C57BL/6 mouse assessed as tumor growth inhibition at 10 mg/kg, ip qd for 15 days relative to control; assay type: functional; settings: 360 h, route intraperitoneal, read-out: GI
SNB-19 = assay: Growth inhibition of human SNB19 cells after 48 hrs by sulforhodamine B assay; assay type: functional; settings: SNB-19, 48 h
A549 = assay: Growth inhibition of human A549 cells after 48 hrs by sulforhodamine B assay; assay type: functional; settings: A549, 48 h
SK-MEL-2 = assay: Growth inhibition of human SK-MEL-2 cells after 48 hrs by sulforhodamine B assay; assay type: functional; settings: SK-MEL-2, 48 h
Mus musculus [10] = assay: Toxicity in mouse LLC cells xenografted C57BL/6 mouse assessed as decrease in body weight at 10 mg/kg, ip qd for 15 days; assay type: organism-based; parameters: dose 10 mg/kg, route intraperitoneal; settings: in vivo, 360 h
786-0 = assay: Growth inhibition of human 786-0 cells after 48 hrs by sulforhodamine B assay; assay type: functional; settings: 786-0, 48 h
K562 = assay: Growth inhibition of human K562 cells after 48 hrs by sulforhodamine B assay; assay type: functional; settings: K562, 48 h
HCT-15 = assay: Growth inhibition of human HCT15 cells after 48 hrs by sulforhodamine B assay; assay type: functional; settings: HCT-15, 48 h

## CC(=O)O[C@H]1C(=O)[C@@]2(C)[C@H]([C@H](OC(=O)c3ccccc3)[C@]3(O)C[C@H](OC(=O)[C@H](OC(=O)CCC(=O)NCCCC[C@H](NC(=O)CC[C@H](NC(=O)[C@H](C)NC(=O)/C=C/c4ccc(Cl)cc4)C(N)=O)C(N)=O)[C@H](NC(=O)c4ccccc4)c4ccccc4)C(C)=C1C3(C)C)[C@]1(OC(C)=O)CO[C@@H]1C[C@@H]2O
A2780
  inhibition in vivo at 30 mg/kg: 45.2%
KETR3
  Activity: Active
HL-60(TB)
  GI50: < 10 nM
A-431
  Activity: Active
OVCAR-8
  GI50: < 10 nM
SF-539
  GI50: < 10 nM
[1]
  GI50: < 10 nM
SR
  GI50: < 10 nM
RXF 393
  GI50: < 10 nM
SW-620
  GI50: < 10 nM
4T1 [2]
  growth inhibition (GI): Active
Mus musculus [3]
  Activity: 45.3%
Mus musculus [4]
  Activity: Non-toxic
HeLa
  Activity: Active
NCI-H322M
  GI50: < 10 nM
HCT-116
  GI50: < 10 nM
A498
  GI50: < 10 nM
ACHN
  GI50: < 10 nM
TK-10
  GI50: < 10 nM
Mus musculus [5]
  Activity: Active
UACC-257
  GI50: < 10 nM
U-251
  GI50: < 10 nM
OVCAR-3
  GI50: < 10 nM
IGROV-1
  GI50: < 10 nM
MDA-MB-435
  GI50: < 10 nM
Mus musculus [6]
  Activity: Non-toxic
MCF7
  GI50: < 10 nM
NCI-H522
  GI50: < 10 nM
KB
  Activity: Active
MDA-MB-468
  GI50: < 10 nM
Mus musculus [7]
  Activity: 22%
4T1 [8]
  inhibition in vivo at 10 mg/kg: 45.9%
SK-MEL-28
  GI50: < 10 nM
OVCAR-4
  GI50: < 10 nM
DU-145
  GI50: < 10 nM
NCI-H23
  GI50: < 10 nM
UO-31
  GI50: < 10 nM
[9]
  inhibition in vivo at 10 mg/kg: 33.1%
SNB-19
  GI50: < 10 nM
A549
  GI50: < 10 nM
SK-MEL-2
  GI50: < 10 nM
Mus musculus [10]
  Activity: Non-toxic
786-0
  GI50: < 10 nM
K562
  GI50: < 10 nM
HCT-15
  GI50: < 10 nM
